According to US11180474B2 (BRISTOL-MYERS SQUIBB COMPANY, priority 2016, dated 2021):

Columns and labels:
human TLR8 = target: T1, human TLR8 (Homo sapiens, UniProt Q9NR97); assay: TLR8 inhibition reporter assay (HEK-Blue cells, SEAP reporter, R848 stimulation); format: cell-based; conditions: HEK-Blue cells overexpressing human TLR8, R848 15.9 μM
T1 construct: host or cells: HEK-Blue cells
T1 sequence (Q9NR97 27-1041): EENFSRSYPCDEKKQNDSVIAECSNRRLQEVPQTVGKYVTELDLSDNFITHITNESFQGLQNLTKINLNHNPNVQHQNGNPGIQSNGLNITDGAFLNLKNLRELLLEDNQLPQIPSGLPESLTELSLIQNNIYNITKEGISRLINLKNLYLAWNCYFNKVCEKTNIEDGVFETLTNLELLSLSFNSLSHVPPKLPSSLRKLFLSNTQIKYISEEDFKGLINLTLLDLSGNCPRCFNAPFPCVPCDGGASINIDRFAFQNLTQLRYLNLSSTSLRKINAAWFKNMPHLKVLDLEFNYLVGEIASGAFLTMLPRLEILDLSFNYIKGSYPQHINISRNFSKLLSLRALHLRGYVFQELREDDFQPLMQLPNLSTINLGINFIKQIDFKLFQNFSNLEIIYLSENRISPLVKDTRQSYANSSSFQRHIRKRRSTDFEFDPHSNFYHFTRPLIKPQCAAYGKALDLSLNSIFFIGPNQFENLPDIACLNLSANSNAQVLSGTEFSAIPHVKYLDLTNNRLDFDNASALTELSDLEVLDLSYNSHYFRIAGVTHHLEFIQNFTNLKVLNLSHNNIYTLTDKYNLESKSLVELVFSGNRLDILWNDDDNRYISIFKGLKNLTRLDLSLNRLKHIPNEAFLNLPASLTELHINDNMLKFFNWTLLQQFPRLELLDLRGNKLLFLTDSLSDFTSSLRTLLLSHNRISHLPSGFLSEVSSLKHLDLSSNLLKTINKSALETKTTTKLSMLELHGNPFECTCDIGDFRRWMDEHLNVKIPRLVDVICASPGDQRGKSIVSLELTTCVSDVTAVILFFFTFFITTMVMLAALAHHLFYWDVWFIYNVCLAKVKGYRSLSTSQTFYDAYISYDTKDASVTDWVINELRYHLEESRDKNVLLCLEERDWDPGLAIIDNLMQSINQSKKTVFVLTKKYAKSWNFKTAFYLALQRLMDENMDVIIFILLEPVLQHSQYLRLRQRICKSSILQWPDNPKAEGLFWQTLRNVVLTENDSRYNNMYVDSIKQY
Method in brief: (§1)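 In this cell reporter format, test compounds at 0.05 nM-50 μM final incubate 22 h with seeded cells (TLR7 15000, TLR8 20,000 per well). SEAP read-out by HEK-Blue Detection medium yields % inhibition relative to agonist/DMSO and known-inhibitor wells.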

human TLR7 = target: T2, human TLR7 (Homo sapiens, UniProt Q9NYK1); assay: TLR7 inhibition reporter assay (HEK-Blue cells, SEAP reporter, gardiquimod stimulation); format: cell-based; conditions: HEK-Blue cells overexpressing human TLR7, gardiquimod 7.5 μM
T2 construct: host or cells: HEK-Blue cells
T2 sequence (Q9NYK1 27-1049): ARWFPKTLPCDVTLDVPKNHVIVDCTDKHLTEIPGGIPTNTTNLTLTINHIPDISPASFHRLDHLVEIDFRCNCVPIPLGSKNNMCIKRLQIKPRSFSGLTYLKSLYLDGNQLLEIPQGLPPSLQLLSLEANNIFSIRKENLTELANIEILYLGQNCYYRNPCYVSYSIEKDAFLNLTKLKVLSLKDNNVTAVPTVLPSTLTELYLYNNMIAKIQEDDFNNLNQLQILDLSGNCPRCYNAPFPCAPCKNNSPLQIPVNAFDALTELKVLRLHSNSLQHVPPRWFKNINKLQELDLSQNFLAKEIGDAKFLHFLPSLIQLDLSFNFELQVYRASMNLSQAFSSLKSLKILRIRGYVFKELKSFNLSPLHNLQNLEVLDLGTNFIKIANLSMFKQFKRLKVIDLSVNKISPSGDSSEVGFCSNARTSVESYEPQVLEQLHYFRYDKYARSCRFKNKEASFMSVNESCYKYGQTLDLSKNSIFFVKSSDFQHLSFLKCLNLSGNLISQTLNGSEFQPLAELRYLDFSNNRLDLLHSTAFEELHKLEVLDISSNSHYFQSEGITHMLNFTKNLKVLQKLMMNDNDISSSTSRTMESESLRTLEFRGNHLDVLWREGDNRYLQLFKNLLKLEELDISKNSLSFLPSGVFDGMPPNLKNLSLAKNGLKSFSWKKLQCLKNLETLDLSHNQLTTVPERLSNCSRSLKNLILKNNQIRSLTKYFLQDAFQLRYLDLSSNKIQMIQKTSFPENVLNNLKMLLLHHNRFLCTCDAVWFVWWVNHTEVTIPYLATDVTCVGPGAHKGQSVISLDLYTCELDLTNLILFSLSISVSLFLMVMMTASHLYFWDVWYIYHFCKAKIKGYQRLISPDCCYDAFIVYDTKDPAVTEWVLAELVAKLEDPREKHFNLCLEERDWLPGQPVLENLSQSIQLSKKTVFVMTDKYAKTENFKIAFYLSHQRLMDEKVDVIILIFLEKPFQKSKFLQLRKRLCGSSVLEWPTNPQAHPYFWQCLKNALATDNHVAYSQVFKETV
Method in brief: as §1

Row | IC50 (human TLR8) [nM] | IC50 (human TLR7) [nM] | Compound
1 | 31 | 345 | CCc1c(-c2ccc(OC)c(OC)c2)[nH]c2ccc(C3CCN(C4CCN(CC)CC4)CC3)cc12 [Example 149, 2-(3,4-dimethoxyphenyl)-3-ethyl-5-(1′-ethyl-[1,4′-bipiperidin]-4-yl)-1H-indole]
2 | 1360 | 7980 | CCc1c(-c2ccc(OC)c(OC)c2)[nH]c2ccc(C3CCN(C4CCN(C)CC4)CC3)cc12 [Example 150, 2-(3,4-dimethoxyphenyl)-3-ethyl-5-(1′-methyl-[1,4′-bipiperidin]-4-yl)-1H-indole]
3 | 403 | 507 | CCc1c(-c2ccc(OC)c(OC)c2)[nH]c2ccc(C3CCN(C4CCN(C(C)C)CC4)CC3)cc12 [Example 151, 2-(3,4-dimethoxyphenyl)-3-ethyl-5-(1′-isopropyl-[1,4′-bipiperidin]-4-yl)-1H-indole]
4 | 33 | 590 | CCc1c(-c2ccc(OC)c(OC)c2)[nH]c2ccc(C3CCN(C4CCN(C5CCCC5)CC4)CC3)cc12 [Example 152, 5-(1′-cyclopentyl-[1,4′-bipiperidin]-4-yl)-2-(3,4-dimethoxyphenyl)-3-ethyl-1H-indole]
5 | 364 | 1470 | CCc1c(-c2ccc(OC)c(OC)c2)[nH]c2ccc(C3CCN(C4CCN(Cc5cnc(C)[nH]5)CC4)CC3)cc12 [Example 153, 2-(3,4-dimethoxyphenyl)-3-ethyl-5-(1′-((2-methyl-1H-imidazol-5-yl)methyl)-[1,4′-bipiperidin]-4-yl)-1H-indole]
6 | 29 | 134 | CCc1c(-c2ccc(OC)c(OC)c2)[nH]c2ccc(C3CCN(CCNC)CC3)cc12 [Example 155, 2-(4-(2-(3,4-dimethoxyphenyl)-3-ethyl-1H-indol-5-yl)piperidin-1-yl)-N-methylethanamine di-trifluoroacetic acid]
7 | 26 | 42 | CCc1c(-c2ccc(OC)c(OC)c2)[nH]c2ccc(C3CCN(C(=O)CNCCO)CC3)cc12 [Example 159, 1-(4-(2-(3,4-dimethoxyphenyl)-3-ethyl-1H-indol-5-yl)piperidin-1-yl)-2-((2-hydroxyethyl)amino) ethan-1-one]
8 | 332 | 1210 | CCc1c(-c2ccc(OC)c(OC)c2)[nH]c2ccc(C3CCN(C(=O)CNCC#N)CC3)cc12 [Example 161, 2-((2-(4-(2-(3,4-dimethoxyphenyl)-3-ethyl-1H-indol-5-yl)piperidin-1-yl)-2-oxoethyl)amino)acetonitrile]
9 | 23 | 88 | CCc1c(-c2ccc(OC)c(OC)c2)[nH]c2ccc(C3CCN(C(=O)CNC4CCC(N(C)C)CC4)CC3)cc12 (stereo not drawn) [Example 162, 1-(4-(2-(3,4-dimethoxyphenyl)-3-ethyl-1H-indol-5-yl)piperidin-1-yl)-2-((4-(dimethylamino)cyclohexyl)amino)ethan-1-one]
10 | 41 | 142 | CCc1c(-c2ccc(OC)c(OC)c2)[nH]c2ccc(C3CCN(C(=O)CN4CCCC(C(=O)N(CC)CC)C4)CC3)cc12 (stereo not drawn) [Example 168, 1-(2-(4-(2-(3,4-dimethoxyphenyl)-3-ethyl-1H-indol-5-yl)piperidin-1-yl)-2-oxoethyl)-N,N-diethylpiperidine-3-carboxamide]
11 | 25 | 43 | CCc1c(-c2ccc(OC)c(OC)c2)[nH]c2ccc(C3CCN(C(=O)CN4CC[C@@H](O)C4)CC3)cc12 [Example 173, (R)-1-(4-(2-(3,4-dimethoxyphenyl)-3-ethyl-1H-indol-5-yl)piperidin-1-yl)-2-(3-hydroxypyrrolidin-1-yl)ethan-1-one]
12 | 2060 | 1690 | CCc1c(-c2ccc(OC)c(OC)c2)[nH]c2ccc(C3CCN(C(=O)C(C)(C)OC(C)=O)CC3)cc12 [Example 175, 1-(4-(2-(3,4-dimethoxyphenyl)-3-ethyl-1H-indol-5-yl)piperidin-1-yl)-2-methyl-1-oxopropan-2-yl acetate]
